Drawing on patent publication US4328359A, “15-Deoxy-16-substituted-19-chloro-20-nor-prostane derivatives of the E and F series” (American Cyanamid Company, priority 1981, dated 1982), this text covers ED50 for 1 compound.

What all share (type): in vivo
The test system of assay [1] is bronchospasms elicited by intravenous injections of serotonin. The experiment in a line: Konzett procedure: bronchodilator activity in Guinea-Pigs, serotonin-induced bronchospasm. The following applies: Cavia porcellus, spasmogen serotonin, three logarithmic cumulative intravenous doses. As to the method: (§1) The bronchodilator activity for representative compounds of this invention was determined in Guinea-Pigs against bronchospasms elicited by intravenous injections of serotonin, histamine, and acetylcholine, by the Konzett procedure, the details of which are those discussed by J. Lulling, P. Lievens, F. El Sayed and J. Prignot, Arzeimittel-Forschung 18, 995 (1968).
(§2) In the table which follows, bronchodilator activity for representative compounds of the invention against spasmogenic agents serotonin, histamine, and acetylcholine is expressed as an ED50 determined from the results obtained with three logarithmic cumulative intravenous doses.

The subject of assay [2] is bronchospasms elicited by intravenous injections of acetylcholine. The experiment in a line: Konzett procedure: bronchodilator activity in Guinea-Pigs, acetylcholine-induced bronchospasm. Particulars: Cavia porcellus, spasmogen acetylcholine, three logarithmic cumulative intravenous doses. On the procedure:
as §1, §2

Assay [3] deals with bronchospasms elicited by intravenous injections of histamine. As to the kind of experiment: Konzett procedure: bronchodilator activity in Guinea-Pigs, histamine-induced bronchospasm. The following applies: Cavia porcellus, spasmogen histamine, three logarithmic cumulative intravenous doses. As to the method:
as §1, §2

For `O=C(O)CCC/C=C\C[C@H]1C(=O)C[C@@H](O)[C@@H]1/C=C/CC(O)CCCCl` (relative stereo) [dl 11α,16-dehydroxy-9-oxo-19-chloro-20-nor-5-cis,13-trans prostadienoic acid], the ED50 amounted to 4.65 µg/kg in assay [1], 6.8 µg/kg in assay [2] and 4.4 µg/kg in assay [3].
